# In paper PMC10045593, “Ubiquitin-Specific Proteases as Potential Therapeutic Targets in Bladder Cancer—In Vitro Evaluation of Degrasyn and PR-619 Activity Using Human and Canine Models” (Biomedicines, 2023):
# Experiments:
# K9TCC-PU-NK cell line = assay: Annexin V-FITC/PI apoptosis flow cytometry; format: cell-based, canine; conditions: 24 h
# Protocol: (§1) To assess the level of apoptosis induced by Degrasyn and PR-619, cells were seeded at a density of 1 × 10^5/mL in 96-well plates (TPP, Trasadingen, Switzerland) and incubated for 24 h with increasing concentrations of compounds. Cells were then collected, suspended in a binding buffer, and stained with Annexin V-FITC for 10 min at room temperature. Subsequently, PI was added, and flow cytometric analysis was immediately performed using a flow cytometers (FACS Calibur, Becton Dickinson, Biosciences, San Jose, CA, USA; CytoFlex, Beckman Coulter, CA, USA). CellQuest 3.lf. (Becton Dickinson, San Jose, CA, USA) and CytExpert 2.4 (Beckman Coulter, CA, USA) software were used for data analysis.
# RDSVS-TCC1 cell line = assay: Annexin V-FITC/PI apoptosis flow cytometry; format: cell-based, canine; conditions: RDSVS-TCC1, 24 h; for pro-apoptotic effect (number of apoptotic cells vs control): increasing concentrations up to approximately IC50
# Protocol: as §1
# [1] = system: USP5 protein in T24 cells; assay: Western blot for USP5 expression; format: cell-based, human; conditions: T24, 24 h; Degrasyn 0.6, 1.25, 2.5 μM; PR-619 1.25, 2.5, 5 μM
# Protocol: (§2) Western blot was performed to assess the expression of USP5, USP9X, and USP14 in analyzed cell lines. After 24 h of incubation with increasing concentrations of Degrasyn and PR-619, the expression of proteins involved in apoptosis (Bcl-2 and Bcl-xl) and a marker of DNA damage (γH2A.X) was also evaluated. Briefly, cells were rinsed with cold phosphate-buffered saline (PBS), suspended in lysis buffer (50 mM Tris-HCl pH 7.5, 100 mM NaCl, 1% NP-40, protease inhibitors set), and incubated for 20 min on ice. Subsequently, after centrifuging at 10,000 rpm at 4 °C for 12 min, sodium dodecyl sulfate (SDS) sample buffer was added to […]. After boiling for 5 min at 95 °C, the samples were subjected to SDS-polyacrylamide gel electrophoresis on 8–15% gel. For USP5, USP9X, USP14, γH2A.X, Bcl-2, and Bcl-xl expression analysis, transfers onto nitrocellulose membranes were performed using a Semidry Transfer Cell or wet transfer method (Bio-Rad, Hercules, CA, USA). After transfer, the membranes were blocked with 1% casein in TBS (or 3% BSA for γH2Ax) at room temperature for 1 h. […]
# γH2AX in T24 cell line = assay: Western blot for γH2AX (DNA damage); format: cell-based, human; conditions: T24, 24 h
# Protocol: as §2
# [2] = system: γH2AX in canine BC cell lines (K9TCC-PU-NK, RDSVS-TCC1); assay: Western blot for γH2AX (DNA damage); format: cell-based; conditions: 24 h
# Protocol: as §2
# [3] = system: Bcl-2 in all BC cell lines (T24, K9TCC-PU-NK, RDSVS-TCC-1); assay: Western blot for Bcl-2 expression; format: cell-based, human and canine; conditions: 24 h
# Protocol: as §2
# [4] = system: Bcl-xl in all cell lines (SV-HUC-1, T24, K9TCC-PU-NK, RDSVS-TCC1); assay: Western blot for Bcl-xl expression; format: cell-based, human and canine; conditions: 24 h
# Protocol: as §2
# [5] = highest concentrations of the drug
Structure (SMILES),percentage of early and late apoptotic cells (K9TCC-PU-NK cell line; 5 μM) [%],pro-apoptotic effect (number of apoptotic cells vs control) (K9TCC-PU-NK cell line; increasing concentrations up to approximately IC50),percentage of early and late apoptotic cells (RDSVS-TCC1 cell line; 5 μM) [%],pro-apoptotic effect (number of apoptotic cells vs control) (RDSVS-TCC1 cell line),USP5 protein expression [1],amount of γH2AX (γH2AX in T24 cell line; [5]),"amount of γH2AX [2, 5]",expression of Bcl-2 protein ([3]; 10 μM),"Bcl-xl expression ([4]; analyzed cell lines, increasing concentrations)",percentage of early and late apoptotic cells (K9TCC-PU-NK cell line; 2.5 μM) [%],percentage of early and late apoptotic cells (RDSVS-TCC1 cell line; 2.5 μM) [%],expression of γH2AX (γH2AX in T24 cell line; 2.5 µM and 5 µM),expression of γH2AX ([2]; only 5 µM),expression of Bcl-2 protein ([3]; 5 μM),"Bcl-xl expression ([4]; all cell lines, 5 μM)"
N#CSc1cc(SC#N)c(N)nc1N [PR-619],8.4 ± 0.8,did not show a significant pro-apoptotic effect,17.2 ± 6.5,did not show a significant pro-apoptotic effect,no visible effect,only a slight visible increase,only a slight visible increase,slightly decreased,No clearly visible changes,,,,,,
CCC[C@H](NC(=O)/C(C#N)=C/c1cccc(Br)n1)c1ccccc1 [Degrasyn],,,,significant increase,clearly decreased,,,,,11.8 ± 3.4,42.4 ± 2.3,high expression,high expression,slightly decreased,slightly reduced
